Source: PubChem BioAssay AID504578 (NMMLSC, 2011)

Each molecule was assayed on U937 / B78H1-VCAM-1 aggregate disruption, flow cytometry (assay: allosteric VLA-4 inhibitors disrupting cell aggregates, orthogonal assay, flow cytometry, set 1 (AID 504578)). Details: at 20 µM; hits give high values.

| Structure (SMILES) | disaggregation rating |
| --- | --- |
| COc1cccc(-c2sc3ccccc3c2-c2ccc(OCCN(C)C)cc2)c1 | 1 |
| c1ccc2c(-c3ccc(OCCN4CCCC4)cc3)c(-c3ccsc3)sc2c1 | 2 |
| c1ccc2c(-c3ccc(OCCN4CCCCC4)cc3)c(-c3ccsc3)sc2c1 | 1 |
| c1ccc(-c2sc3ccccc3c2-c2ccc(OCCN3CCCC3)cc2)cc1 | 1 |
| CN(C)CCOc1ccc(-c2c(-c3ccccc3)sc3ccccc23)cc1 | 2 |
| COc1cccc(-c2sc3ccccc3c2-c2ccc(OCCN3CCCC3)cc2)c1 | 1 |
| COc1ccc(-c2sc3ccccc3c2-c2ccc(OCCN(C)C)cc2)cc1 | 2 |
